Several values for one entry are separate records, joined by “and”; a condition that tells them apart may be missing. Equal entries are not always repeated. Entries after “also recorded” stand apart in the source; their conditions may differ.
Experiments:
[1] = cited from earlier work
[2] = tested on: Plasmodium berghei; conditions: mice infected with Plasmodium berghei; cited from earlier work
[3] = Periodontal pocket depth in patients with periodontal disease, oral CoQ10 trial; format: in vivo, human
Procedure: (§1) Twenty-two systemically healthy patients with periodontal disease, 11 males and 11 females, ages 33 to 66, participated in this trial. These volunteers were treated orally with 100 mg of CoQ10 per day for two months. Informed consent forms were signed prior to the study. Periodontal examinations and peripheral blood analyses were made before and during the trial. During the trial, the patients were not provided any routine periodontal treatment, and the staff gave them no information about oral hygiene to the patients.
(§2) The gingival index (8) and plaque index (9) were criteria to assess to degrees of gingival inflammation and accumulation of plaque on the teeth, respectively. The periodontal pocket depth was measured in interdental regions of buccal gingiva. The deepest pocket which was measured before administration of CoQ10 was selected for direct examination of oral bacteria by a microscope. The subgingival plaques were obtained with a curette, and were then dispersed in physiological saline which contained 1% gelatin, and were then prepared for analysis by phase contrast microscopy. The biopsies were viewed by means of a DS/300 microscope system (Dental Scientific Systems, Inc., VA) at 400× magnification. Small spirochetes, large spirochetes, spinning rods, spiral rods, small gliding rods, large gliding rods and palisading rods were identified as based upon cellular morphology and active motility. The following scores were used in each category: 0, no bacterial cells; 1, 1-9 cells; 2, 10-39 cells; and 3, more than 40 cells.

[4] = Gingival index in patients with periodontal disease, oral CoQ10 trial; format: in vivo, human; design: Gingival Index, 2 Months: scale not given here
Procedure: as §1, §2
(§3) A paired-t test was used for the statistical analysis of differences in the gingival index, the plaque index, the blood CoQ10 levels, and the T4/TS ratios before and after the administration. The Wilcoxson test was used to test scores in microscopic analysis.

[5] = patients with AIDS and the AIDS-related complex; cited from earlier work
[6] = tested on: spirochetes; experiment: Phase contrast microscopy of subgingival plaque: spirochetes; format: in vivo, human
Procedure: as §1
as §2, with “Small spirochetes, large spirochetes, spinning rods, spiral rods, small gliding rods, large gliding rods and palisading rods were identified as based upon cellular morphology and active motility. The following scores were used in each category: 0, no bacterial cells; 1, 1-9 cells; 2, 10-39 cells; and 3, more than 40 cells.” left out

[7] = oral administration (ref 5); cited from earlier work
[8] = tested on: subgingival microorganisms; experiment: Phase contrast microscopy of subgingival plaque: total motile microorganisms; format: in vivo, human; design: key to Total subgingival microorganism score, 2 Months: 0 = no cells, 1 = 1-9, 2 = 10-39, 3 = >40 cells per category
Procedure: as §1
as §2, with “Small spirochetes, large spirochetes, spinning rods, spiral rods, small gliding rods, large gliding rods and palisading rods were identified as based upon cellular morphology and active motility. The following scores were used in each category: 0, no bacterial cells; 1, 1-9 cells; 2, 10-39 cells; and 3, more than 40 cells.” left out

[9] = Plaque index in patients with periodontal disease, oral CoQ10 trial; format: in vivo, human; design: Plaque Index, 2 Months: scale not given here
Procedure: as §1, §2, §3

[10] = tested on: T4/T8 lymphocytes; experiment: T4/T8 lymphocyte ratio in peripheral blood by flow cytometry; format: in vivo, human
Procedure: as §1
(§4) About 3 ml of peripheral blood was drawn for determination of CoQ10 levels and the T4/T8 ratios. The determination of the COQ10 level was performed as described by Ye et al. (10). T4(CD4) and T8 (CD8) monoclonal antibodies were purchased from Coulter Immunology, Hialeah, Fla. The lymphocytes were stained according to the two-color fluorescence, and the flow cytometric analysis was performed on an Epics Profile cell sorter (Coulter Electronics Inc., Hileah, Fla.).The sample preparations and staining procedures were performed as described by Parker et al. (11).
as §3

[11] = Blood CoQ10 level; format: in vivo, human
Procedure: as §1, §4, §3

[12] = tested on: motile rods; experiment: Phase contrast microscopy of subgingival plaque: motile rods; format: in vivo, human
Procedure: as §1
as §2, with “Small spirochetes, large spirochetes, spinning rods, spiral rods, small gliding rods, large gliding rods and palisading rods were identified as based upon cellular morphology and active motility. The following scores were used in each category: 0, no bacterial cells; 1, 1-9 cells; 2, 10-39 cells; and 3, more than 40 cells.” left out

[13] = tested on: tumors induced by dibenzpyrene; conditions: cited from earlier work
[14] = oral administration (ref 14); cited from earlier work
[15] = 22 patients, 100 mg orally for two months, p<0.001
[16] = individual patients (one line per ID #), 100 mg CoQ10 per day orally for 2 months
[17] = 22 patients, 100 mg orally for two months, p<0.01
[18] = individual patients, sum of category scores (0 no motile cells, 1 1-9, 2 10-39, 3 more than 40 cells per microscopic field), 100 mg/day orally
[19] = individual patients, peripheral blood, 100 mg CoQ10 per day orally

SMILES: COC1=C(OC)C(=O)C(C/C=C(\C)CC/C=C(\C)CC/C=C(\C)CC/C=C(\C)CC/C=C(\C)CC/C=C(\C)CC/C=C(\C)CC/C=C(\C)CC/C=C(\C)CCC=C(C)C)=C(C)C1=O [CoQ10, coenzyme Q10]
- Gingival inflammation ([1]; earlier clinical trials (refs 2,3,5)): improvement
- Periodontal pocket depth ([1]; earlier clinical trials (refs 2-5)): improvement
- Tooth mobility ([1]; earlier clinical trials (refs 3-5)): improvement
- Effectiveness of chloroquin [2]: potentiated
- Parasitemia in the red blood cells [2]: reduced
- Survival time [2]: prolonged
- Survivors [2]: increased
- Change of pocket depth [3, 15]: decreased
- Pocket Depth, 2 Months [3, 16]: 2.3 mm (3×) and 2.7 mm (2×) and 1.9 mm and 2.4 mm and 2.6 mm (3×) and 2.9 mm (2×) and 2.2 mm and 1.8 mm and 3.6 mm and 3.4 mm and 2.8 mm (2×) and 2.5 mm and 3.0 mm and 4.5 mm and 3.7 mm
- Pocket Depth, 2 Months, Mean ([3]; mean of 22 patients, S.D. 0.6, before 3.0, p <0.001, 100 mg/day orally): 2.8 + mm
- Change of gingival index [4, 17]: decreased
- Gingival Index, 2 Months [4, 16]: 0.5 (3×) and 0.7 (3×) and 0.1 (2×) and 0.2 (3×) and 0.3 (3×) and 1.0 (2×) and 1.4 (2×) and 1.1 and 1.3 and 0.4 and 0.8
- Gingival Index, 2 Months, Mean ([4]; mean of 22 patients, S.D. 0.4, before 0.9, p <0.001, 100 mg/day orally): 0.6 +
- Host defense mechanisms [5]: enhanced
- Change of spirochetes ([6]; 22 patients, 100 mg orally for two months, p<0.02): decreased; also recorded: significant reduction
- Spirochetes score, 2 Months [6, 18]: 3 (8×) and 0 (7×) and 4 and 1 (3×) and 6 (2×) and 2
- Oxygen utilization in inflamed human gingiva [7]: increase
- Total subgingival microorganism score, 2 Months ([8]; individual patients, motile rods plus spirochetes scores, 100 mg/day orally): 6 (6×) and 3 (4×) and 0 (4×) and 8 (3×) and 1 (2×) and 2 and 5 and 7
- Patients in whom all motile microorganisms in the gingiva disappeared ([8]; of 22 patients, 100 mg orally for two months): 4/22 and four
- Change of plaque index ([9]; 22 patients, 100 mg orally for two months): did not change; also recorded: no change
- Plaque Index, 2 Months [9, 16]: 0.0 (5×) and 0.6 (3×) and 0.3 (2×) and 0.2 (4×) and 0.1 (4×) and 0.4 (3×) and 2.0
- Plaque Index, 2 Months, Mean ([9]; mean of 22 patients, S.D. 0.4, before 0.3, not significant, 100 mg/day orally): 0.3 +
- Change of T4/T8 ratio [10, 15]: significantly increased
- T4/T8 Ratio, 2 months, Mean + S.D. ([10]; 22 patients, before 2.9 + 1.0, p <0.001): 3.4 + 1.3
- T4/T8 Ratio, 2 months [10, 19]: 2.3 and 3.1 and 2.8 (2×) and 4.9 and 3.5 and 4.0 and 1.9 and 2.7 and 7.1 and 3.7 and 2.0 (2×) and 6.2 and 2.9 and 3.2 (2×) and 3.9 and 3.4 and 2.4 and 3.6 and 3.8
- Patients with evident increase of T4/T8 ratio ([10]; out of 22): 17 patients
- Change of blood level of CoQ10 [11, 15]: increased in all of the patients
- CoQ10 level, 2 months, Mean + S.D. ([11]; 22 patients, before 0.82 + 0.19, p <0.001): 1.75 + 0.37 ug/ml
- CoQ10 level, 2 months [11, 19]: 1.60 µg/mL and 1.94 µg/mL and 1.59 µg/mL and 2.29 µg/mL and 2.39 µg/mL and 1.16 µg/mL and 1.99 µg/mL and 1.44 µg/mL and 2.37 µg/mL and 1.72 µg/mL and 2.22 µg/mL and 1.30 µg/mL and 2.10 µg/mL and 1.88 µg/mL and 1.65 µg/mL and 1.75 µg/mL and 1.74 µg/mL and 1.90 µg/mL and 1.55 µg/mL and 1.57 µg/mL and 1.26 µg/mL and 1.17 µg/mL
- Change of motile rods [12, 17]: decreased; also recorded: significant reduction
- Motile Rods score, 2 Months [12, 18]: 3 (5×) and 0 (7×) and 4 (2×) and 1 (3×) and 2 (3×) and 6 and 5
- Number of survivors ([13]; dibenzpyrene tumor model, mice): increase
- Percentage of mice with tumors ([13]; mice susceptible to dibenzpyrene-induced tumors): reduction
- Tumor size or number ([13]; mice that developed tumors): reduction
- Activities of the CoQ10-dependent enzymes in inflamed dog gingiva [14]: increase
- CoQ10 levels in inflamed dog gingiva [14]: increase
